Assay results as given in patent US20110229415A1, “SEMI-SYNTHETIC ANTIBODIES AS RECOGNITION ELEMENTS” (priority 2007, published 2011).

Key:
Assay type in all cases: binding
mAb against Osteonectin = test: Labeling of mAb against Osteonectin with radioactive probes
Protocol: 2N3ATP versus [γ^32P] 8N3ATP. Lanes A and D have […] have 10 μL, and C and F have 15 μL of the labeled antibody. [γ^32P] 2N3ATP labels the antibody better than [γ^32P] 8N3ATP.

[1] = test system: Mouse anti-Human IL-6 monoclonal antibody; test: Selecting the photoaffinity probe: photolabeling of antibody with radioactive nucleotide probes, SDS PAGE/autoradiography; conditions: IL-6 antibody, 300 μM of each probe, pH 4.0
Protocol: Selecting the photoaffinity probe. Two radioactive nucleotide probes, [γ-^32P]8-N3ATP and [γ-^32P]2-N3ATP were tested towards their reactivity with Mouse anti-Human IL-6 monoclonal antibody. For the labeling procedure 8 μg antibody was incubated with 300 μM of each probe in two different tubes in a final volume of 62 μl for 10 min on ice. The buffer used was 100 mM BTP at pH 4.0. After 10 min incubation the two tubes were photolyzed with a hand held UV lamp at 254 nm for 2 min and the reaction mixture was agitated in between to prevent local heating. The reaction was quenched by adding 12 μl of loading dye, PSM (5×) and heating it in a water bath for 5 min. The reaction products were then analyzed by SDS PAGE. ^32P incorporation was detected by autoradiography.

[2] = biological target: mouse anti-human IL-6 antibody; test: Determination of KD by competitive labeling with 2-N3ATP [γ 32P] and 2-N3ATP-fluorophore; conditions: competition with 30 μM 2-N3ATP [γ 32P], 2 μg antibody, photolysis; read-out: apparent KD
Protocol: Determination of KD of the monoclonal antibody for 2-N3ATP-fluorophore. Competitive labeling of the mouse anti-human IL-6 antibody with 2-N3ATP [γ ^32P] and 2-N3ATP-fluorophore was done. 30 μM 2-N3ATP [γ ^32P] and 2 μg of the antibody was added to each 10 μM, 20 μM, 40 μM, 60 μM, 80 μM, 100 μM and 120 μM of 2-N3ATP-fluorophore tube and incubated for 20 min on ice. The tubes were then photolyzed for 1 min 15 s. The reaction was quenched by adding 5 μl of 0.25 mg/ml cysteine and analyzed by SDS/PAGE and autoradiography.

[3] = test system: Mouse anti-Human IL-6 monoclonal antibody; test: Saturation of labeling of antibody with photoreactive probe; conditions: 2 μg antibody, increasing probe concentrations, photolysis at 254 nm
Protocol: Saturation of labeling. 2 μg of Mouse anti-Human IL-6 monoclonal antibody was incubated with increasing concentrations of [γ-^32P]2-N3ATP for 20 min on ice and photolyzed with a hand held lamp at 254 nm for 1 min 15 sec. The reaction was quenched by adding 5 μl of 0.25 mg/ml cysteine and analyzed by SDS/PAGE and autoradiography.

Compound | labeling of the antibody, compared with the 8-azido probe (mAb against Osteonectin) | labeling of the antibody, compared with the 8-azido probe [1] | Kd [2] [µM] | saturation of photolabeling (probe concentration) [3]
[N-]=[N+]=Nc1nc(N)c2ncn([C@@H]3O[C@H](COP(=O)(O)OP(=O)(O)OP(=O)(O)O)[C@@H](O)[C@H]3O)c2n1 [2-N3ATP, 2-azido ATP] | greater efficiency as compared to 8-azido ATP | greater efficiency as compared to 8-N3ATP | – | –
2-N3ATP-Alexa Fluor 594 cadaverine | – | – | ~17 | –
[N-]=[N+]=Nc1nc(N)c2ncn([C@@H]3O[C@H](COP(=O)(O)OP(=O)(O)O[32P](=O)(O)O)[C@@H](O)[C@H]3O)c2n1 [[γ-^32P]-2-N3ATP] | better than [γ^32P] 8N3ATP | better than [γ-^32P]-8-N3ATP | – | ~25 ΞM
